In PMC2943488 (Molecular bioSystems, 2010):

Assays:
[1] = system: MEK–ERK signaling (p-MEK1, p-ERK1/2); assay: Bio-Plex bead-based phosphoprotein assay, MEK–ERK pathway; format: cell-based, human
[2] = system: primary human hepatocytes; assay: Lactate dehydrogenase; format: cell-based
[3] = system: Akt, p70 S6K, MEK–ERK, and p38–HSP27 signaling pathways; conditions: donor #2; 100*Cmax

N#CC(=C(/N)Sc1ccccc1N)/C(C#N)=C(/N)Sc1ccccc1N [U0126]
inhibition of MEK signaling in human hepatocytes ([1]; donor #3, selection from panel of candidate inhibitors): potently inhibit signaling
toxicity induced by inhibitor itself in human hepatocytes ([2]; donor #3): minimal toxicity

CC[C@H]1OC(=O)[C@H](C)[C@@H](O[C@H]2C[C@@](C)(OC)[C@@H](O)[C@H](C)O2)[C@H](C)[C@@H](O[C@@H]2O[C@H](C)C[C@H](N(C)C)[C@H]2O)[C@](C)(OC)C[C@@H](C)C(=O)[C@H](C)[C@@H](O)[C@]1(C)O [clarithromycin]
MEK–ERK signaling under drug treatment ([1]; donor #1 and donor #2, 100*Cmax): sustained activation of MEK–ERK signaling

CN(C)CCCN1c2ccccc2CCc2ccc(Cl)cc21 [clomipramine]
activation of the four 'network gauge' signaling pathways compared to control treatments [3]: without significant activation

N[C@@H]1[C@H]2CN(c3nc4c(cc3F)c(=O)c(C(=O)O)cn4-c3ccc(F)cc3F)C[C@@H]12 [trovafloxacin]
synergistic induction of cell death by drug/cytokine co-treatment ([2]; drug ± three-cytokine/LPS mix, donors #1 and #2): synergistically induced
